Reference: patent publication US12617777B2, “GPR84 antagonists and uses thereof” (Liminal BioSciences Limited, priority 2021, dated 2026)

Assays:
[1] = test system: mouse dextran sodium sulfate-induced chronic inflammatory bowel disease model; conditions: once-daily doses of 3 and 10 mg/kg; efficacy similar to sulfasalazine; cited from earlier work
neutrophils = test: Neutrophil migration assay (embelin as chemotactic agent, ATPlite readout); assay type: cell-based; conditions: for IC50: Neutrophil, human neutrophils, embelin as chemotactic agent, read-out: Human Neutrophil migration inhibition IC50; for Human Neutrophil migration inhibition - fold potency to Control Compound: normalized to GPR84 antagonist Control Compound (average IC50 131 nM)
Procedure, shortened: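 Isolated neutrophils (8.9×10^6 cells/ml in DMEM + 10 mM HEPES) preincubated with compound 30 min at 37 °C, then allowed to migrate 60 min at 37 °C through 5 μm-pore transwells toward embelin. Migrated cells quantified by ATPlite luminescence; results normalized for donor variation.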

human GPR84 receptor = molecular target: T1, human GPR84 receptor (Homo sapiens, UniProt Q9NQS5); test: Gαi biosensor BRET assay in HEK293 cells (antagonism of ZQ-16); assay type: cell-based; conditions: for IC50: HEK293 cells, antagonism of 200 nmol/L ZQ-16; for inhibition at 10 µM: HEK293, single concentration 10 μM (designated F); for inhibition at 2 µM: HEK293, single concentration 2 μM (designated A)
T1 construct: host or cells: HEK293, transient transfection
Procedure, shortened: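 HEK293 cells transiently expressing human GPR84, Gαi2-Rluc8, GFP10-Gγ2 and Gβ1, in Tyrode's buffer pH 7.5. Compounds preincubated 5 min at 37° C, then 200 nmol/L ZQ-16 for 5 min at room temperature; coelenterazine 400A 5 μmol/L. BRET2 acceptor/donor ratio, background- and vehicle-corrected net BRET.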

T1 sequence (Q9NQS5 whole entry): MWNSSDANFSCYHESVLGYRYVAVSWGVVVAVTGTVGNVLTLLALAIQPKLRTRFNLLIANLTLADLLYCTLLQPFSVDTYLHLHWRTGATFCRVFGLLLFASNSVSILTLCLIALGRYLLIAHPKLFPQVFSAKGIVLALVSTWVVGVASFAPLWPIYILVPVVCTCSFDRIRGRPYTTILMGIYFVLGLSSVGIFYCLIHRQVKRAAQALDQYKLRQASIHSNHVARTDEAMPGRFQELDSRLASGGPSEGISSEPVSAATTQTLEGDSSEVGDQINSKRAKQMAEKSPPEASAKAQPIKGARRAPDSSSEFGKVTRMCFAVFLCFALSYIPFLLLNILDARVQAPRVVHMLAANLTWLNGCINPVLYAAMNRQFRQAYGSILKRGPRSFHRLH

IC50 (neutrophils) | inhibition at 25 µM (human GPR84 receptor; HEK293, single concentration 25 μM (designated I)) | IC50 (human GPR84 receptor) | inhibition at 10 µM (human GPR84 receptor) | inhibition at 2 µM (human GPR84 receptor) | inhibition at 5 µM (human GPR84 receptor; HEK293, single concentration 5 μM (designated D)) | SMILES | disease activity index score [1] | neutrophil infiltration [1] | Human Neutrophil migration inhibition - fold potency to Control Compound (neutrophils)
≤ 300 nM |  | 300 to 1000 nM | > 75% |  |  | CN(C)c1cc(C#CCNc2ccccc2)ccc1-c1cn(CC2CC(C)(C)CO2)nn1 (centres unmarked) [Compound I-460] |  |  | A (IC50 of >1.0-fold relative to Control Compound)
1000 to 3000 nM |  | 1000 to 3000 nM |  |  |  | CN(C)c1cc(C#CC2CC2)ccc1-c1cn(CC2CCCCO2)nn1 (centres unmarked) [Compound I-87] |  |  | C (IC50≤0.5-fold relative to Control Compound)
300 to 1000 nM |  | ≤ 300 nM | 50 to 75% |  |  | Cc1cc(N2CCN(Cc3ccccn3)CC2)ccc1-c1cn(C[C@H]2CCC(F)(F)CO2)nn1 (stereo in doubt) [Compound I-635] |  |  | C (IC50≤0.5-fold relative to Control Compound)
≤ 300 nM |  | 300 to 1000 nM |  | > 75% |  | Cc1cc(N2CCN(Cc3ccccn3)CC2)ccc1-c1cn(CC2OCC3(CC3)CO2)nn1 [Compound I-637] |  |  | A (IC50 of >1.0-fold relative to Control Compound)
300 to 1000 nM |  | 1000 to 3000 nM | > 75% |  |  | Cc1cc(C#CC2CC2)cnc1-c1cn(C[C@H]2CCCCO2)nn1 [Compound I-245] |  |  | C (IC50≤0.5-fold relative to Control Compound)
1000 to 3000 nM |  |  |  | 25 to 50% |  | Cc1cc(N2CC3(CCCN3Cc3ccccc3)C2)ccc1-c1cn(CC2CCCCO2)nn1 (centres unmarked) [Compound I-149] |  |  | C (IC50≤0.5-fold relative to Control Compound)

Second part, the compound before the results:

SMILES | IC50 (neutrophils) | inhibition at 25 µM (human GPR84 receptor; HEK293, single concentration 25 μM (designated I)) | IC50 (human GPR84 receptor) | inhibition at 10 µM (human GPR84 receptor) | inhibition at 2 µM (human GPR84 receptor) | inhibition at 5 µM (human GPR84 receptor; HEK293, single concentration 5 μM (designated D)) | disease activity index score [1] | neutrophil infiltration [1] | Human Neutrophil migration inhibition - fold potency to Control Compound (neutrophils)
O=c1nc(OC[C@@H]2COCCO2)cc2n1CCc1cc(C#CC3CC3)ccc1-2 [GLPG1205] |  |  |  |  |  |  | reduced | reduced | 
Cc1ccc(C#CC2CC2)cc1-c1cn(CC2CCCCO2)nn1 (centres unmarked) [Compound I-65] | 1000 to 3000 nM | > 75% | 1000 to 3000 nM |  |  |  |  |  | C (IC50≤0.5-fold relative to Control Compound)
Cc1cc(N2CC(C)(NCc3ccccn3)C2)ccc1-c1cn(CC2CCCCO2)nn1 (centres unmarked) [Compound I-441] | ≤ 300 nM |  | 1000 to 3000 nM | 50 to 75% |  |  |  |  | A (IC50 of >1.0-fold relative to Control Compound)
CC(C)Oc1cc(C#CC2CC(F)(F)C2)cnc1-c1cn(CC2OCC(C)(C)CO2)nn1 [Compound I-650] | ≤ 300 nM |  | 300 to 1000 nM |  | > 75% |  |  |  | A (IC50 of >1.0-fold relative to Control Compound)
CCc1cc(N2CCN(Cc3ccccn3)CC2)cnc1-c1cn(C[C@H]2CCCCO2)nn1 [Compound I-459] | ≤ 300 nM |  | 1000 to 3000 nM | > 75% |  |  |  |  | C (IC50≤0.5-fold relative to Control Compound)
Cc1cc(C#CC2CC2)cnc1-c1cn(CC2CCCCO2)nn1 (centres unmarked) [Compound I-107] | ≤ 300 nM |  | 1000 to 3000 nM | > 75% |  |  |  |  | A (IC50 of >1.0-fold relative to Control Compound)
Cc1cc(N2CC(C)(CNc3ccccn3)C2)ccc1-c1cn(CC2CCCCO2)nn1 (centres unmarked) [Compound I-464] | ≤ 300 nM |  | 300 to 1000 nM |  | > 75% |  |  |  | C (IC50≤0.5-fold relative to Control Compound)
Cc1cc(C#CCNc2ccccc2)ccc1-c1cn(CC2CCCCO2)nn1 (centres unmarked) [Compound I-68] | 300 to 1000 nM |  | 1000 to 3000 nM |  |  | 50 to 75% |  |  | B (IC50 of >0.5-≤1.0-fold relative to Control Compound)
CCc1cc(C#CCNC(=O)OC(C)(C)C)ccc1-c1cn(CC2CCCCO2)nn1 (centres unmarked) [Compound I-572] | ≤ 300 nM |  | 300 to 1000 nM | > 75% |  |  |  |  | A (IC50 of >1.0-fold relative to Control Compound)
